Experimental data from patent US20240124428A1, “HETEROCYCLIC INHIBITORS OF PCSK9” (CARDIO THERAPEUTICS PTY LTD, priority 2020, published 2024).

Columns and labels:
[1] = Dedicated pharmacokinetic study, single oral dose; assay type: in vivo, C57BL/6 mice; details: plasma; for Cmax / Tmax / AUC(0-t): female, C57BL/6, mouse, mice; for Cmax / Tmax: PO 50 mg/kg study; for AUC(0-t): route and dose not given (PO 50 mg/kg study); for bioavailability: mouse, PO dose of 50 mg/kg, female C57BL/6 mice
Procedure: For dedicated pharmacokinetic analyses of compounds 29, 122 and 131, C57BL/6 mice (19-21 g, 10-12 weeks, female, purchased from Jihui Laboratory Animal Co. LTD) were given free access to food and water throughout the in-life phase of the study. Mice were orally dosed once with 50 mg/kg (10 mL/kg) of either compound 29, 122 and 131 with each compound formulated in 90% saline, 5% Solutol HS15 and 5% DMSO. At designated time points following dosing (t=0.083, 0.25, 0.5, 1, 2, 4, 8 and 24 h), the animals were restrained manually and ˜110 μL of blood/time point was collected into pre-cooled EDTA-K2 tubes via the facial vein. Blood samples were put on wet ice, then centrifuged at 2000 g for 5 min (4° C.) to obtain plasma within 15 min after sample collection. Plasma samples were subsequently stored at approximately −70° C. until analysis. Each sample was assayed for levels of 29, 122 and 131 by LC/MS/MS using a Triple Quadruple (6500+) system operating in a positive electrospray ionisation mode.
The mean plasma concentration-time profiles from dedicated pharmacokinetic analyses of compound 29, 122 and 131 are shown in FIG. 5A-C. Mice were orally dosed once with either 50 mg/kg of (A) compound 29, (B) compound 122 or (C) compound 131.

[2] = HepG2 cytotoxicity (CellTiter-Glo); assay type: cell-based; details: human, HepG2 cells; 48 h of exposure
Procedure: HepG2 is a human hepatoma commonly used in drug metabolism and hepatotoxicity studies.
HepG2 cells were seeded at a density of 7000 or 8000 cells/well in a 96-well plate. Twenty to twenty four hours later, cells were treated with test compound for 48 hours in 3-fold serial dilutions with a top test concentration of 50 or 150 μM. After the incubation, CellTiter-Glo reagent was added directly to the wells. The plate was shaken for 2 or 5 mins on a plate shaker then incubated at room temperature for a further 10 mins. Subsequently, 100 μL of the above solution was transferred to a white flat bottom opaque 96 well plate (or opaque-walled clear bottom plates taped with a white bottom seal) and luminescence recorded on a plate reader.

APOE*3-Leiden.CETP mice = test: In vivo efficacy study: compound 29 monotherapy; details: for reduction of total plasma cholesterol levels compared to the vehicle control: over a period of four weeks
Procedure: Female APOE*3-Leiden.CETP mice (˜10-14 weeks old) were obtained from the SPF breeding stock at TNO-Metabolic Health Research (Leiden).
Mice were housed in macrolon cages (maximum of 6 mice per cage) in clean-conventional animal rooms (relative humidity 50-60%, temperature ˜21° C., light cycle 7 am to […]). Mice were fed a semi-synthetic western type diet with 15% saturated fat and 0.15% (w/w) cholesterol and were provided with heat-sterilized tap water and food ad libitum.
Forty female APOE*3-Leiden.CETP mice were allowed to acclimate to these conditions for a 3 week run-in period prior to the removal of 8 low-responder mice. […] In the final week of the run-in diet, all mice received vehicle solution (5% DMSO, 5% Solutol HS15, 90% saline) twice daily by oral gavage to accustom the animals to the procedure. After matching, mice received vehicle solution only (Group 1) or compound 29 in vehicle solution (Groups 2, 3 and 4) for the remainder of the study by twice daily administration using oral gavage in a volume of 5 mL/kg body weight. On days 0, 3, 7, 14, 21 and 28 of treatment, blood samples were taken after 4 h of fasting, from which EDTA plasma was collected and used for measurement of plasma total cholesterol. Lipoprotein profiles were determined on day 0, 14 and 28 in group pooled plasma samples using an equal volume of plasma per mouse. On day 28, directly after the last blood sampling point, mice were sacrificed via CO2 asphyxiation, fasted. At sacrifice, EDTA-plasma samples were obtained via heart puncture.
EDTA plasma blood samples were obtained after 4 h fasting. Animals were placed under a red light lamp for at least 10 minutes. The tail was fixed and the mice were allowed to move freely during blood collection and were not fixed to avoid additional stress. […]
Total plasma cholesterol and triglyceride levels were determined using a […] from Roche.
Analyses were performed in samples pooled per group. Cholesterol levels were measured using a “Cholesterol CHOD-PAP” kit from Roche.

Row | Compound | Cmax [1] [ng/mL] | Tmax [1] [h] | AUC(0-t) [1] [ng·h/mL] | bioavailability [1] [%] | IC50 at 48 h [2] [µM] | plasma PCSK9 levels (APOE*3-Leiden.CETP mice; 30 and 50 mg/kg bid oral, over four weeks) | reduction of total plasma cholesterol levels compared to the vehicle control (APOE*3-Leiden.CETP mice; oral dosing 30 mg/kg) | reduction of total plasma cholesterol levels compared to the vehicle control (APOE*3-Leiden.CETP mice; oral dosing 50 mg/kg) [%]
1 | Cc1cnc(C(=O)Nc2cc(CN3CCC(F)(F)[C@H](N)C3)cc(-c3ccc(C(F)(F)F)nc3)c2)cc1-c1ccccc1 [compound 131] | 6740 | 1 | 98500 | 54 | 109 |  |  | 
2 | Cc1ccc(-c2cc(CN3CCC(F)(F)[C@H](N)C3)cc(NC(=O)c3cc(-c4ccccc4)ccn3)c2)cn1 [Compound 122] | 10800 | 4 | 173000 | 75 | 11.1 |  |  | 
3 | Cc1cn(-c2cc(CN3CCC[C@H](N)C3)cc(NC(=O)c3cc(-c4ccccc4)ccn3)c2)cn1 [compound 29, (S)—N-(3-((3-aminopiperidin-1-yl)methyl)-5-(4-methyl-1H-imidazol-1-yl)phenyl)-4-phenylpicolinamide] | 1480 | 2 | 8130 | 40 | 3.23 | increase in plasma PCSK9 levels | more than 30% | > 50
